Measured values from patent publication US5473055A, “Polymer-bound paclitaxel derivatives” (Farmitalia Carlo Erba S.r.l., priority 1992, dated 1995).
Like-named read-outs stand apart in the source and are kept apart here.

Experiments:
Calf brain tubulin = test: Microtubule assembly and disassembly assay; assay type: biochemical; settings: percentage of repolymerisation induced after CaCl2 depolymerisation
Description: Calf brain tubulin was prepared by two cycles of assembly-disassembly (Shelanski M. L. Gaskin F. and Cantor C. R., Proc. Natl. Acad. Sci. U.S.A. 70, 765-768, 1973) and stored in liquid nitrogen in MAB (0.1M MES, 2.5 mM EGTA, 0.5 mM MgSO4, 0.1 mM EDTA, 0.1 mM DTT pH 6.4).
All the experiments were carried out on protein stored for less than 4 weeks.
Before each experiment, the tubulin was kept 30 min at 4° C.
Assembly was monitored by the method of Gaskin et al (Gaskin F., Cantor C. R. Shelanski M. L. J. Molec. Biol 89, 737-758, 1974). The cuvette (1 cm path) containing tubulin (1 mg/ml) and 1 mM GTP was shifted to 37° C. and continous turbidity measurements were made at 340 nm on Perkin-Elmer 557 Double Wavelength Double Beam Spectrophotometer equipped with an automatic recorder and a termostatically regulated sample chamber.
After 30 minutes 4 mM CaCl2 was added and depolymerisation was measured for 10 minutes as decreased turbidity. At regular intervals of 15 minutes scalar doses of the tested compounds were added and variations in the turbidity were monitored. Data are espressed as percentage of ripolymerisation induced by the tested compounds.

[1] = system: B16-F10 murine melanoma cells; test: In vitro drug sensitivity assay; assay type: cell-based; settings: 72 hrs incubation, cell counting, read-out: IC50 (dose causing 50% inhibition cell growth)
Description: Exponentially growing B16-F10 murine melanoma cells were seeded (2×10^4 /ml) in RPMI 1640 medium were supplemented with 10% heat-inactivated fetal calf serum and 2 mM glutamine in 24 well-plates (Costar). Scalar concentrations of tested compounds were added immediately after seeding. The inhibition of cell growth was evaluated by counting cells with a coulter counter after 72 hrs incubation. For each tested compound concentration triplicate cultures were used. The antiproliferative activity of the tested compounds was calculated from dose-response curves and espressed as IC50 (dose causing 50% inhibition cell growth in treated cultures relative to untreated controls).

[2] = TOX determination in tumor-bearing mice; assay type: in vivo, C57B16 female mice; settings: day 1, 5, 9
Description: (§1) The compound of example 6 was injected intravenously. Both compounds were administered at day 1, 5, 9 after tumor implantation.
TOX: number of mice which died for toxicity.
TOX determination was made when mice died before the control or when significant body weight loss and/or spleen and or/or liver size reduction were observed.

B16 F10 murine melanoma = test: In vivo antitumor activity against B16 F10 murine melanoma; parameters: species or system C57B16 female mice
Description: The copolymer-paclitaxel prepared in Example 6 was tested in vivo against B16 F10 murine melanoma in comparison with paclitaxel.
C57B16 female mice were obtained from Charles River Italy.
Animals were 8 to 10 weeks old at the beginning of the experiment.
The murine melanoma B16F10 was used. A suspension of 10^5 tumor cells in 0.2 ml was injected subcutaneously in the flank of mice.
Tumor size was measured with caliper and tumor weight was calculated with the formula: [formula]
as §1
The dose of the polymer-conjugate is referred to the paclitaxel content.

Molecule | Tubulin Assembly % (Calf brain tubulin; 0.5 μM) [%] | Tubulin Assembly % (Calf brain tubulin; 5 μM) [%] | IC50 ([1]; Mus musculus) [µM] | IC50 [1] [µM] | other results
CC(=O)OC1C(=O)C2(C)C(O)CC3OCC3(OC(C)=O)C2C(OC(=O)c2ccccc2)C2(O)CC(OC(=O)C(OC(=O)CNC(=O)C(CC(C)C)NC(=O)C(N)Cc3ccccc3)C(NC(=O)c3ccccc3)c3ccccc3)C(C)=C1C2(C)C (stereo not shown) [Example 3, 2'(phenylalanyl-leucyl-glycyl)paclitaxel] | 46 | 86 | 23 |  | 
CC(=O)OC1C(=O)C2(C)C(OC(=O)CCN)CC3OCC3(OC(C)=O)C2C(OC(=O)c2ccccc2)C2(O)CC(OC(=O)C(O)C(NC(=O)c3ccccc3)c3ccccc3)C(C)=C1C2(C)C (stereo not shown) [Example 9, 7-(βalanyl)paclitaxel] | 79 | 145 | 47 |  | 
CC(=O)O[C@H]1C(=O)[C@@]2(C)[C@H]([C@H](OC(=O)c3ccccc3)[C@]3(O)C[C@H](OC(=O)[C@H](O)[C@@H](NC(=O)c4ccccc4)c4ccccc4)C(C)=C1C3(C)C)[C@]1(OC(C)=O)CO[C@@H]1C[C@@H]2O [Paclitaxel] | 41 | 96 | 39 |  | Tox: number of mice which died for toxicity ([2]; 14.6 mg/Kg intraperitoneally): 0/10; Tox: number of mice which died for toxicity ([2]; 22 mg/Kg intraperitoneally): 0/10; Tox: number of mice which died for toxicity ([2]; 33 mg/Kg intraperitoneally): 1/7; Tumor Inhibition (%) (B16 F10 murine melanoma; 14.6 mg/Kg intraperitoneally, day 1, 5, 9 after tumor implantation): 53%; Tumor Inhibition (%) (B16 F10 murine melanoma; 22 mg/Kg intraperitoneally, day 1, 5, 9): 38%; Tumor Inhibition (%) (B16 F10 murine melanoma; 33 mg/Kg intraperitoneally, day 1, 5, 9): 92%; Appearance of the solution (Cremophor EL 50% and ethanol 50%, diluted with glucose 5% solution): slightly hazy and precipitates formation was observed after short time
Copolymer of 1-methacryloylamino-2-hydroxypropane,1-(methacryloyl-glycyl-phenylanyl-leucyl-glycyl)amino-2hydroxypropane and 2(methacryloyl-glycyl-phenylalanyl-leucyl-glycyl-βalanyl)paclitaxel [Example 6] | 0 | 10 |  | 51 | Tox: number of mice which died for toxicity ([2]; 14.6 mg/Kg (paclitaxel content) intravenously): 0/9; Tox: number of mice which died for toxicity ([2]; 22 mg/Kg (paclitaxel content) intravenously): 0/10; Tumor Inhibition (%) (B16 F10 murine melanoma; 14.6 mg/Kg (paclitaxel content) intravenously, day 1, 5, 9): 77%; Tumor Inhibition (%) (B16 F10 murine melanoma; 22 mg/Kg (paclitaxel content) intravenously, day 1, 5, 9): 79%; Dissolution in glucose 5% (glucose 5%): easily dissolved; Time the resulting solution was clear (solution in glucose 5%): more than 2 hours
Copolymer of 1-methacryloylamino-2-hydroxypropane, 1 (methacryloyl-glycyl-phenylalanyl-leucyl-glycyl)amino-2-hydroxypropane and 2'(methacryloyl-glycyl-phenylalanyl-leucyl-glycyl)paclitaxel [Example 1] | 0 | 15 |  | 19 | 
Copolymer of 1-methacryloylamino-2-hydroxypropane, 1-(methacryloyl-glycyl)amino-2-hydroxypropane and 2'(methacryloyl-glycyl-phenylalanyl-leucyl-glycyl)paclitaxel [Example 4] | 0 | 10 |  | 11 | 
